Source: patent publication US10183015B2, “Heterocyclic compounds and methods of use” (Medivation Technologies LLC, priority 2015, dated 2019)
“And” between values parts separate entries of the source, which are not always exact repeats. Equal entries are not always repeated.

What was measured:
INSIG1 = experiment: Short-term Paigen-diet NASH mouse model: hepatic INSIG1 gene expression (RT-qPCR); assay type: in vivo; conditions: liver, 21 days; for DDct: INSIG1 Dct relative to vehicle mean; for Dct: INSIG1 minus 18S; for 2DDct: INSIG1 relative expression to vehicle group, normalized to 18S; for INSIG1: raw RT-qPCR value
Method: To investigate whether Compound #37 prevents the development of pathology associated with NASH and steatosis in an acute exploratory disease model, a study was conducted using a diet-induced acute liver steatosis model in mice. As described below, in this study, C57BL/6J mice were initiated on the Paigen diet and simultaneously treated with Compound #37 (5, 20, and 40 mg/kg/day) or vehicle control (20% HPβCD 10 mL/kg/day) by oral gavage for 21 days.
(§1) After acclimation, 8-week old male C57Bl/6J mice (Charles River) weighing about 25 g were randomized in 4 groups according their body weight and treated once daily around noon by oral gavage with vehicle, or Compound #37 at various for 21 days as follows: Group 1: vehicle-20% (2-hydroxypropyl)-β-cyclodextrin (HP-β-CD) (n=10); Group 2: Compound #37, 5 mg/kg (n=10) Group 3: Compound #37, 20 mg/kg (n=10) Group 4: Compound #37, 40 mg/kg (n=10). During the treatment period, body weight and food intake (measured over 24h) were measured 3 times per week and once a week, respectively. During the acclimation, all mice were fed a standard diet (Special Diets Services RM1 (E), product no. 801492) and tap water ad libitum. After the acclimation period, mice were fed until the end of the experiment with a 60% high fat Paigen diet (60 kcal % fat, 1.25% cholesterol, and 0.5% cholate; D11061901, Research Diet) and tap water ad libitum.
Gene expression analysis. Hepatic expression levels of genes involved in lipid metabolism (FAS, SREBP1, ACC1, SCD1), cholesterol metabolism (HMG-CoAR, LDLR), SREBP proteolysis (SCAP, INSIG1), ER stress (PERK), oxidative stress (NRF2), inflammation (MCP-1), and fibrosis (collagen 1α1) were quantified by RTqPCR. Expression level was normalized to 18S gene expression and relative expression to vehicle group was calculated with the […] method.

IL-6 = experiment: Short-term Paigen-diet NASH mouse model: liver IL-6 levels; assay type: in vivo
Method: To investigate whether Compound #37 prevents the development of pathology associated with NASH and steatosis in an acute exploratory disease model, a study was conducted using a diet-induced acute liver steatosis model in mice. […]
as §1
The 60% high fat Paigen diet induced accumulation of liver lipids, inflammation, oxidative stress, and then fibrosis.

[1] = Compound #37 5 mg/kg, group mean, n=10
[2] = Compound #37 5 mg/kg, individual animals, 5 mg/kg
[3] = Compound #37 20 mg/kg, group mean, n=6
[4] = Compound #37 20 mg/kg, individual animals, 20 mg/kg

For `CC(C)Cc1cc(-c2nc(-c3ccc(NS(=O)(=O)C(F)(F)F)cc3Cl)cs2)ccn1` [Compound 37, N-(3-chloro-4-(2-(2-isobutylpyridin-4-yl)thiazol-4-yl)phenyl)-1,1,1-trifluoromethanesulfonamide], the DDct (INSIG1; [1]) was 0.28, the DDct (INSIG1; [2]) was −0.58 and 0.21 and 0.48 and −0.03 and 0.34 and 1.45 and 0.09 and 0.52 and 0.32 and 0.05 and the DDct (INSIG1; [3]) was 0.15. The DDct (INSIG1; [4]) was 0.5 and 0.75 and 0.51 and −0.67 and 0.62 and −0.76, the Dct (INSIG1; [1]) was 12 and the Dct (INSIG1; [2]) was 11.1 and 11.89 and 12.16 and 11.65 and 12.02 and 13.13 and 11.77 and 12.2 and 12 and 11.73. For the same compound, the Dct (INSIG1; [3]) was 11.8, the Dct (INSIG1; [4]) was 12.18 and 12.43 and 12.19 and 11.01 and 12.3 and 10.92 and the 2DDct (INSIG1; [1]) was 0.87. The 2DDct (INSIG1; [2]) was 1.5 and 0.87 and 0.72 and 1.02 and 0.79 and 0.37 and 0.94 and 0.7 and 0.8 and 0.97, the 2DDct (INSIG1; [3]) was 0.99 and the 2DDct (INSIG1; [4]) was 0.71 and 0.6 and 0.7 and 1.6 and 0.65 and 1.7. For the same compound, the INSIG1 (INSIG1; [1]) was 24.2, the INSIG1 (INSIG1; [2]) was 24.56 and 25 (2×) and 23.77 and 24.05 and 26.48 and 23.37 and 23.99 and 23.14 and 22.85 and the INSIG1 (INSIG1; [3]) was 24. For the same compound, the INSIG1 (INSIG1; [4]) was 25.09 and 24.72 and 24.39 and 24.04 and 23.79 and 22.18, the “IL-6 (pg/mg tissue)” value (IL-6; 5 mg/kg, 21 days, group mean) was 1012 pg/mg tissue and the “IL-6 (pg/mg tissue)” value (IL-6; 5 mg/kg, 21 days, individual animals) was 1444 pg/mg tissue and 845 pg/mg tissue and 1107 pg/mg tissue and 650 pg/mg tissue and 1305 pg/mg tissue and 957 pg/mg tissue and 770 pg/mg tissue and 1296 pg/mg tissue and 883 pg/mg tissue and 863 pg/mg tissue. The “IL-6 (pg/mg tissue)” value (IL-6; 20 mg/kg, 21 days, group mean) was 817 pg/mg tissue, the “IL-6 (pg/mg tissue)” value (IL-6; 20 mg/kg, 21 days, individual animals) was 904 pg/mg tissue and 737 pg/mg tissue and 760 pg/mg tissue and 705 pg/mg tissue and 970 pg/mg tissue and 826 pg/mg tissue and the “IL-6 (pg/mg tissue)” value (IL-6; 40 mg/kg, 9 days, group mean) was 669 pg/mg tissue. For the same compound, the “IL-6 (pg/mg tissue)” value (IL-6; 40 mg/kg, 9 days, individual animals) was 1005 pg/mg tissue and 569 pg/mg tissue and 535 pg/mg tissue and 566 pg/mg tissue.
